The values that follow are results of earlier work, collected in patent US4528378A, “Substituted 3,4-diamino-1,2,5-thiadiazoles having histamine H2 -receptor antagonist activity” (Bristol-Myers Company, priority 1984, dated 1985).

The series has as its system peptic ulcer disease. The conditions noted are these: Gray et al., Lancet, 1, 8001 (1977).

As for `CN/C(=N/CCSCc1nc[nH]c1C)NC#N` [cimetidine], the “clinical efficacy in treatment of peptic ulcer disease” value is recorded as “effective therapeutic agent in the treatment of peptic ulcer disease”.
